{
  "source": "patent US20030186980A1",
  "about": "“Anthelmintic agents for preventing parasitic infections in humans and animals III” (priority 2000, published 2003)",
  "key": {"[1]": {"test_system": "Schistosoma mansoni cercariae", "assay": "Activity against Schistosoma mansoni cercariae (survival/mobility observed with a stereomagnifier)", "design": "key: no effect during the entire test period of 120 minutes; 1: weak effect (the cercariae have a strongly reduced mobility); 2: good effect (the cercariae are only slightly mobile and bent); 3: full effect (the cercariae are completely immobile)", "details": "500 μl/l final concentration of active compound; PEG300/aquarium water; test period of 120 minutes; about 100 to 150 cercariae per batch", "experimental": "[500 μl/l final concentration of the active compounds] Snails (Biomphalaria glabrata) were infected by incubating each of them with 8 miracidia in 10 ml of water overnight. About 6 to 9 weeks after the infection, cercariae were obtained by irradiating the snails, which had been kept in darkness, with light, followed by collection of the swarming cercariae within 2 hours.\nSuch an amount of cercariae-containing water (1 or 2 ml, see below) was added to the test batches that each batch contained about 100 to 150 cercariae.\n5 μl of active compound were mixed thoroughly with 25 μl of PEG300. 9 ml of aquarium water was then added, and the batch was shaken vigorously. After (delayed) addition of 1 ml of cercariae suspension, survival of the cercariae was in each case observed immediately using a stereomagnifier."}, "[2]": {"test_system": "cercariae of Schistosoma mansoni", "details": "topical; Salafsky et al. 1998; cited from earlier work"}, "[3]": {"test_system": "cercariae of Schistosoma mansoni", "details": "Fripp and Armstrong 1973; cited from earlier work"}, "[4]": {"test_system": "cercariae of Schistosoma mansoni", "details": "topical, monkeys; Bruce et al. 1992; cited from earlier work"}},
  "data": [
    {"smiles": "CCC(C)N(C)C(=O)N1CC(C)OC(C)C1", "note": "(stereo not shown)", "values": [
      {"measurement": "activity rating against Schistosoma mansoni cercariae", "setting": "[1]", "result": 1}
    ]},
    {"smiles": "CCN(CC)C(=O)c1cccc(C)c1", "note": "[N,N-Diethyl-m-toluamide (DEET), N,N-Diethyl-m-toluamide]", "values": [
      {"measurement": "action against cercariae of Schistosoma mansoni", "setting": "[2]", "result": "acts against cercariae"}
    ]},
    {"smiles": "Oc1c(Cl)cc(Cl)c(Cl)c1Cc1c(O)c(Cl)cc(Cl)c1Cl", "note": "[hexachlorophene]", "values": [
      {"measurement": "effect on cercariae of Schistosoma mansoni", "setting": "[3]", "result": "lethal effect"}
    ]},
    {"smiles": "O=C(Nc1ccc([N+](=O)[O-])cc1Cl)c1cc(Cl)ccc1O", "note": "[Niclosamide]", "values": [
      {"measurement": "action against the penetration of cercariae", "setting": "[4]", "result": "acts against the penetration of cercariae"}
    ]}
  ]
}
